Measured values reported in patent publication US20120238549A1, “Nuclear Hormone Receptor Modulators” (ABBOTT LABORATORIES, priority 2011, published 2012).

What follows are compounds tested against T1, Glucocorticoid Receptor (GR) (Homo sapiens, UniProt P04150) (assay: GR Florescence Polarization Assay (PolarScreen Glucocorticoid Receptor Competitor Assay, Red)). Conditions: Fluorescense polarization binding ranges; competition with fluorescent glucocorticoid, incubated overnight at 4° C.
T1 construct: purchased Invitrogen P2893
T1 sequence (P04150 1-777): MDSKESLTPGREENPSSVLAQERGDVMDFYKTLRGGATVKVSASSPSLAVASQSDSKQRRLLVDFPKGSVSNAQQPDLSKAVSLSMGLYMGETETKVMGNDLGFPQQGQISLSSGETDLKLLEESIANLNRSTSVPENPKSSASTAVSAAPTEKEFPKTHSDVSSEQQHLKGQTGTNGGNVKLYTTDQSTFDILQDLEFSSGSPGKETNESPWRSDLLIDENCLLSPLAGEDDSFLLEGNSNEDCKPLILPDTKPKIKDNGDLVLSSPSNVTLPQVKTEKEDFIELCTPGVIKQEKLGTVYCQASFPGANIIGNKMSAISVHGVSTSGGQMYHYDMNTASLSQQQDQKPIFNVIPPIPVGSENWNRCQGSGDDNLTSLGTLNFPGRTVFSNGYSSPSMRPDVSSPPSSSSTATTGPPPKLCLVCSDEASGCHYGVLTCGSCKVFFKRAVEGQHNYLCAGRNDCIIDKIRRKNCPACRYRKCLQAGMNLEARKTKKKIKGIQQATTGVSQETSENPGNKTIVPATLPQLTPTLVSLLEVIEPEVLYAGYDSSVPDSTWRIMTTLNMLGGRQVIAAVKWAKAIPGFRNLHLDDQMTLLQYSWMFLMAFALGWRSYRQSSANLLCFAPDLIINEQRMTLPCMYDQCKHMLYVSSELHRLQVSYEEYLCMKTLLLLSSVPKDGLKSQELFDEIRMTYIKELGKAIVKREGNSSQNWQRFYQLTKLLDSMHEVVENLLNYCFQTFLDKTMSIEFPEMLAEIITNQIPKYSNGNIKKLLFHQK
Method in brief: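 Competitive fluorescence polarization using fluorescent glucocorticoid tracer and human GR in kit buffer. Compounds serially diluted 1:4 in DMSO, incubated with tracer and GR overnight at 4 °C before polarization read.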

Row | IC50 [nM] | Compound
1 | 1000 to 10000 | CCC[C@@]12CC[C@@](O)(CC)C[C@@H]1CCCc1cc(C(=O)Nc3cccnc3C)ccc12.CCC[C@]12CC[C@](O)(CC)C[C@H]1CCCc1cc(C(=O)Nc3cccnc3C)ccc12 [Example 27, (7aR,9R,11aS)-9-ethyl-9-hydroxy-11a-propyl-6,7,7a,8,9,10,11,11a-octahydro-5H-dibenzo[a,c]cycloheptene-3-carboxylic acid (2-methyl-pyridin-3-yl)-amide; compound with (7aS,9S,11aR)-9-ethyl-9-hydroxy-11a-propyl-6,7,7a,8,9,10,11,11a-octahydro-5H-dibenzo[a,c]cycloheptene-3-carboxylic acid (2-methyl-pyridin-3-yl)-amide]
2 | < 100 | CCC[C@@]12CC[C@](O)(Cc3ccccc3)C[C@@H]1CCCc1cc(C(=O)Nc3cccnc3C)ccc12.CCC[C@]12CC[C@@](O)(Cc3ccccc3)C[C@H]1CCCc1cc(C(=O)Nc3cccnc3C)ccc12 [Example 34, (7aS,9R,11aR)-9-Benzyl-9-hydroxy-11a-propyl-6,7,7a,8,9,10,11,11a-octahydro-5H-dibenzo[a,c]cycloheptene-3-carboxylic acid (2-methyl-pyridin-3-yl)-amide; compound with (7aR,9S,11aS)-9-benzyl-9-hydroxy-11a-propyl-6,7,7a,8,9,10,11,11a-octahydro-5H-dibenzo[a,c]cycloheptene-3-carboxylic acid (2-methyl-pyridin-3-yl)-amide]
3 | 1000 to 10000 | CCC[C@@]12CC[C@@](O)(Cc3ccccc3)C[C@@H]1CCCc1cc(C(=O)Nc3cccnc3C)ccc12.CCC[C@]12CC[C@](O)(Cc3ccccc3)C[C@H]1CCCc1cc(C(=O)Nc3cccnc3C)ccc12 [Example 35]
4 | > 10000 | O=C1CC[C@@]2(Cc3ccccc3)C(=O)CCCC[C@H]2C1.O=C1CC[C@]2(Cc3ccccc3)C(=O)CCCC[C@@H]2C1 [Example 36, (4aS,9aS)-4a-Benzyl-octahydro-benzocycloheptene-2,5-dione; compound with (4aR,9aR)-4a-benzyl-octahydro-benzocycloheptene-2,5-dione]
5 | 1000 to 10000 | CC[C@@]1(O)CC[C@@]2(Cc3ccccc3)c3c(cnn3C)CCC[C@H]2C1.CC[C@]1(O)CC[C@]2(Cc3ccccc3)c3c(cnn3C)CCC[C@@H]2C1 [Example 38, (6aS,8R,10aS)-10a-Benzyl-8-ethyl-1-methyl-1,4,5,6,6a,7,8,9,10,10a-decahydro-1,2-diaza-benzo[e]azulen-8-ol; compound with (6aR,8S,10aR)-10a-benzyl-8-ethyl-1-methyl-1,4,5,6,6a,7,8,9,10,10a-decahydro-1,2-diaza-benzo[e]azulen-8-ol]
6 | > 10000 | CC[C@@]1(O)CC[C@]2(Cc3ccccc3)c3c(cnn3C)CCC[C@@H]2C1.CC[C@]1(O)CC[C@@]2(Cc3ccccc3)c3c(cnn3C)CCC[C@H]2C1 [Example 39, (6aS,8S,10aS)-10a-Benzyl-8-ethyl-1-methyl-1,4,5,6,6a,7,8,9,10,10a-decahydro-1,2-diaza-benzo[e]azulen-8-ol; compound with (6aR,8R,10aR)-10a-benzyl-8-ethyl-1-methyl-1,4,5,6,6a,7,8,9,10,10a-decahydro-1,2-diaza-benzo[e]azulen-8-ol]
7 | > 10000 | CC[C@@]1(O)CC[C@@]2(Cc3ccccc3)c3nn(C)cc3CCC[C@H]2C1.CC[C@]1(O)CC[C@]2(Cc3ccccc3)c3nn(C)cc3CCC[C@@H]2C1 [Example 40, (6aS,8R,10aS)-10a-Benzyl-8-ethyl-2-methyl-2,4,5,6,6a,7,8,9,10,10a-decahydro-1,2-diaza-benzo[e]azulen-8-ol; compound with (6aR,8S,10aR)-10a-benzyl-8-ethyl-2-methyl-2,4,5,6,6a,7,8,9,10,10a-decahydro-1,2-diaza-benzo[e]azulen-8-ol]
8 | > 10000 | CC[C@@]1(O)CC[C@]2(Cc3ccccc3)c3nn(C)cc3CCC[C@@H]2C1.CC[C@]1(O)CC[C@@]2(Cc3ccccc3)c3nn(C)cc3CCC[C@H]2C1 [Example 41, (6aS,8S,10aS)-10a-benzyl-8-ethyl-2-methyl-2,4,5,6,6a,7,8,9,10,10a-decahydro-1,2-diaza-benzo[e]azulen-8-ol; compound with (6aR,8R,10aR)-10a-benzyl-8-ethyl-2-methyl-2,4,5,6,6a,7,8,9,10,10a-decahydro-1,2-diaza-benzo[e]azulen-8-ol]
9 | 100 to 1000 | Cc1ncccc1NC(=O)c1ccc2c(c1)CCC[C@H]1C[C@@](O)(c3ccccc3)[C@H](O)C[C@@]21Cc1ccccc1 [Example 43, (7aS,9R,10R,11aR)-11a-Benzyl-9,10-dihydroxy-9-phenyl-6,7,7a,8,9,10,11,11a-octahydro-5H-dibenzo[a,c]cycloheptene-3-carboxylic acid (2-methyl-pyridin-3-yl)-amide; compound with (7aR,9S,10S,11aS)-11a-benzyl-9,10-dihydroxy-9-phenyl-6,7,7a,8,9,10,11,11a-octahydro-5H-dibenzo[a,c]cycloheptene-3-carboxylic acid (2-methyl-pyridin-3-yl)-amide]
10 | 100 to 1000 | CC[C@]1(O)CC[C@]2(CC)c3ccc(C(=O)Nc4cccnc4C)cc3CCC[C@@H]2C1 [Example 46]
11 | < 100 | CC[C@@]1(O)CC[C@@]2(CC)c3ccc(C(=O)Nc4cccnc4C)cc3CCC[C@H]2C1 [Example 47]
12 | 100 to 1000 | CC[C@]12CC[C@@](O)(CC(C)C)C[C@H]1CCCc1cc(C(=O)Nc3cccnc3C)ccc12 [Example 48]
13 | < 100 | CC[C@@]12CC[C@](O)(CC(C)C)C[C@@H]1CCCc1cc(C(=O)Nc3cccnc3C)ccc12 [Example 49]
14 | 100 to 1000 | CC[C@]12CC[C@@](O)(CC3CC3)C[C@H]1CCCc1cc(C(=O)Nc3cccnc3C)ccc12 [Example 50]
15 | < 100 | CC[C@@]12CC[C@](O)(CC3CC3)C[C@@H]1CCCc1cc(C(=O)Nc3cccnc3C)ccc12 [Example 51]
16 | < 100 | Cc1ncccc1NC(=O)c1ccc2c(c1)CCC[C@H]1C[C@@](O)(CC#N)CC[C@@]21Cc1ccccc1 [Example 66]

Row | IC50 [nM] | Compound
17 | 100 to 1000 | Cc1ncccc1NC(=O)c1ccc2c(c1)CCC[C@@H]1C[C@](O)(CC#N)CC[C@]21Cc1ccccc1 [Example 67]
18 | < 100 | CC[C@@]1(O)CC[C@@]2(Cc3ccccc3)c3ccc(C(=O)Nc4cnc(C)nc4C)cc3CCC[C@H]2C1 [Example 68, (7aS,9R,11aS)-11a-Benzyl-9-ethyl-9-hydroxy-6,7,7a,8,9,10,11,11a-octahydro-5H-dibenzo[a,c]cycloheptene-3-carboxylic acid (2,4-dimethyl-pyrimidin-5-yl)-amide]
19 | < 100 | CC[C@@]1(O)CC[C@@]2(Cc3ccccc3)c3ccc(C(=O)Nc4ncc(C)nc4C)cc3CCC[C@H]2C1 [Example 69]
20 | < 100 | CC[C@@]1(O)CC[C@@]2(Cc3ccccc3)c3ccc(C(=O)Nc4ccncc4C)cc3CCC[C@H]2C1 [Example 70]
21 | < 100 | CC[C@@]1(O)CC[C@@]2(Cc3ccccc3)c3ccc(C(=O)Nc4cnccc4C)cc3CCC[C@H]2C1 [Example 71]
22 | < 100 | CC[C@@]1(O)CC[C@@]2(Cc3ccccc3)c3ccc(C(=O)Nc4ccc(C)nc4C)cc3CCC[C@H]2C1 [Example 72]
23 | < 100 | CC[C@@]1(O)CC[C@@]2(Cc3ccccc3)c3ccc(C(=O)Nc4ncccc4C)cc3CCC[C@H]2C1 [Example 73]
24 | 100 to 1000 | CC[C@@]1(O)CC[C@@]2(Cc3ccccc3)c3ccc(C(=O)Nc4nncs4)cc3CCC[C@H]2C1 [Example 74]
25 | < 100 | CC[C@@]1(O)CC[C@@]2(Cc3ccccc3)c3ccc(C(=O)Nc4ccnn4C)cc3CCC[C@H]2C1 [Example 75]
26 | < 100 | CC[C@@]1(O)CC[C@@]2(Cc3ccccc3)c3ccc(C(=O)Nc4cc(C)nn4C)cc3CCC[C@H]2C1 [Example 76]
27 | < 100 | CC[C@@]1(O)CC[C@@]2(Cc3ccccc3)c3ccc(C(=O)Nc4nnnn4C)cc3CCC[C@H]2C1 [Example 78]
28 | < 100 | CC[C@@]1(O)CC[C@@]2(Cc3ccccc3)c3ccc(C(=O)Nc4cc(C)[nH]n4)cc3CCC[C@H]2C1 [Example 79]
29 | < 100 | CC[C@@]1(O)CC[C@@]2(Cc3ccccc3)c3ccc(C(=O)NCc4cccnc4C)cc3CCC[C@H]2C1 [Example 83, (7aS,9R,11aS)-11a-Benzyl-9-ethyl-9-hydroxy-6,7,7a,8,9,10,11,11a-octahydro-5H-dibenzo[a,c]cycloheptene-3-carboxylic acid (2-methyl-pyridin-3-ylmethyl)-amide]
30 | > 10000 | CC[C@@]1(O)CC[C@@]2(Cc3ccccc3)c3ccc(C(=O)NCCN4CCOCC4)cc3CCC[C@H]2C1 [Example 84]
31 | < 100 | CC[C@@]1(O)CC[C@@]2(Cc3ccccc3)c3ccc(C(=O)NC4=NC(=O)CN4C)cc3CCC[C@H]2C1 [Example 85]

Row | Compound | IC50 [nM]
32 | CC[C@@]1(O)CC[C@@]2(Cc3ccccc3)c3ccc(C(=O)Nc4ccc(-c5ccn[nH]5)nc4C)cc3CCC[C@H]2C1 [Example 86, (7aS,9R,11aS)-11a-Benzyl-9-ethyl-9-hydroxy-6,7,7a,8,9,10,11,11a-octahydro-5H-dibenzo[a,c]cycloheptene-3-carboxylic acid [2-methyl-6-(2H-pyrazol-3-yl)-pyridin-3-yl]-amide] | < 100
